# Experimental data reported in PMC3183052, “Immunoprotectivity of HLA-A2 CTL Peptides Derived from Respiratory Syncytial Virus Fusion Protein in HLA-A2 Transgenic Mouse” (PLoS ONE, 2011).
# Columns and labels:
# RSV-B1 = assay: Body weight after live RSV challenge; type: in vivo, HLA-A*0201 transgenic C57BL/6 mice; conditions: peptide-immunized HLA-Tg B6 mice, 10^7 pfu live RSV-B1 i.n.; weight recorded daily for 9 days
# Method: To screen the immunodominance of epitopic peptide in the induction of RSV-F specific Th1/Th2 expression, HLA-A*0201 transgenic C57BL/6 mice were anesthetized with isoflurane and immunized with 1×10^7 pfu/50 µL of rAd-F0 or rAd-LacZ or 1×10^4 live RSV B1 via the intranasal (i.n.) route. Twenty days later, the mice were given booster immunization i.n. with the same dose. After 10 days of boost, mice were sacrificed and splenocytes were isolated for the cytokine ELISPOT assay. For peptide-based vaccination, transgenic mice were immunized subcutaneously (s.c.) with 50 µg of the individual synthetic peptides emulsified in 25 µL of incomplete Freund's adjuvant (IFA) (Sigma-Aldrich) and then boosted after 10 days s.c. with the same dose of the respective peptides mixed with IFA. Mice were sacrificed 7 days after the booster and splenocytes were isolated for in vitro peptide-restimulation. […] Mice body weight was monitored daily.
# Figure 3 Determination of lung viral load and gain of lost body weight. […] (A) The viral load in the lungs of individual mice was determined 4 days after challenge by real-time RT-PCR to quantitate RSV N gene expression as described in the Materials and Methods. […] (B) The body weight of each mouse was recorded daily for 9 days after virus challenge. Results are expressed as % (mean) for 5 mice in each experimental group. […]
# [1] = tested on: pulmonary CD8+ T lymphocytes; assay: Number of CD8+ T cells in the lungs by flow cytometry after RSV challenge; type: in vivo, mouse; conditions: day 4 post RSV infection; flow cytometry of lung homogenate
# Method: Whole lungs were perfused with 5 mL 1× PBS before excision. The isolated lung tissues were incubated with 1 µg/mL collagenase for 30 min before homogenizing with the iron mesh. The homogenate was centrifuged at 1,000 rpm for 10 min at 4°C to sediment the pulmonary cells. The cells were washed with 1× PBS and then resuspended in 1× PBS for further analysis by real-time RT-PCR and flow cytometry. For pulmonary IFN-γ detection, 5×10^6/mL cells were cultured with 10 U/mL recombinant IL-2 for 2 days and the supernatants were collected for ELISA.
# Figure 5 Induction of pulmonary IFN-γ and CTL activity in peptide immunized transgenic mice challenged with RSV. At day 4 post RSV infection, lung homogenates were prepared and the following were measured. (A) IFN-γ expression by ELISA, and (B) the number of CD8^+ T cells in the lungs by flow cytometry using PE-cy5-labeled anti-CD8 antibody. (C). Enumeration of CTL activity in the lungs of mice immunized with CD8 peptide epitopes and challenged with RSV. […] The cell mixtures were labeled with 7-AAD and analyzed by flow cytometry. Results are expressed as mean percentage of 7-AAD/CFSE positive cells normalized with un-pulsed DCs. […]
# [2] = tested on: splenocytes from HLA-A*0201 transgenic C57BL/6 mice; assay: IL-2 ELISPOT of splenocytes restimulated with peptide; type: cell-based, mouse
# Procedure, shortened: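 HLA-A*0201 transgenic C57BL/6 mice primed and boosted intranasally 20 days apart with 1×10^7 pfu rAd-F0 or 1×10^4 live RSV B1; splenocytes taken 10 days post-boost. Splenocytes restimulated 48 h at 37°C with 2 µg individual RSV F 9-mer peptides; spots counted, expressed per 5×10^5 splenocytes.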
sequence,measurement,setting,value
"YMLTNSELL [peptide 14, HLA-A*0201-restricted 9-mer synthetic peptide from F protein of RSV-B1 strain]",recovery of body weight loss (in words),RSV-B1,recovered only in the last two days
same,pulmonary CD8+ T cell numbers vs vehicle immunization,[1],lower
same,"IL-2 ELISPOT, RSV","[2]; splenocytes of HLA-Tg B6 mice primed and boosted i.n. with 10^4 pfu RSV-B1, restimulated with 2 µg peptide, representative of two experiments, five mice per group",34.5 cytokine-secreting cells per 5×10^5 splenocytes
same,"IL-2 ELISPOT, rAd-F0","[2]; splenocytes of HLA-Tg B6 mice primed and boosted i.n. with 10^7 pfu rAd-F0, restimulated with 2 µg peptide, representative of two experiments, five mice per group",200 cytokine-secreting cells per 5×10^5 splenocytes
same,"IL-2 level in restimulated splenocytes (ELISPOT, text grading)","[2]; splenocytes of rAd-F0- or RSV B1-primed and boosted HLA-Tg B6 mice, high = over 100 spots, moderate = over 50 spots",over 100 spots
